# Test results reported in patent US20130095520A1, “METHOD FOR DETECTION OF UROTHELIAL CANCER” (NATIONAL UNIVERSITY CORPORATION KOCHI UNIVERSITY, priority 2010, published 2013).
# Counter-ions that a name gives are not always drawn.
# System: cancer cells in the urine (urothelial / bladder cancer)
# Test: Detection of PPIX fluorescence in cells of urine collected after oral ALA hydrochloride (fluorescence microscopy of urinary sediment)
# Format: in vivo, human
# Conditions: 1 g ALA hydrochloride oral in 50 ml orange juice; patient suspected of bladder cancer (about 60 kg); urine collected after about 4 hours; FIG. 1
# Procedure: 1 g of ALA hydrochloride was dissolved in 50 ml of orange juice, and was given to a patient suspected of having bladder cancer (body weight about 60 kg). Urine was collected after about 4 hours, which was immediately centrifuged (3000 rpm/min., 15 min.) in a light shielded state, and was confirmed by microscopic visualization using sediments. The microscope used was OLYMPUS BX50CCD mounted with camera OLYMPUS DP70. The mirror set was Exciter: XF1076 400AF30 Dichroic:XF2007 475DCLP, Emitter: XF3090 585ALP (OMEGA OPTICAL), all of which being a standard fluorescence microscope system.
# The detection method was performed in the same way as Example 1, except that the dosage amount was changed to 500 mg, which is the half amount of Example 1.
compound,measurement,value
"NCC(=O)CCC(=O)O [ALA hydrochloride, 5-aminolevulinic acid]",PPIX fluorescence in cells separated from the urine,a clear PPIX fluorescence derived from cancer cell was observed
